SMILES strings stand for the structures.

In publication PMC9396396, “Molecular and functional interactions of alpha-synuclein with Rab3a” (The Journal of Biological Chemistry, 2022) one finds Km data, which are given here for one molecule.

In the assay the test system is T1, Rab3a-a-Syn fusion construct.
T1 construct: single-chain fusion: 6-His-tag, Rab3a 15-186 (C137A, wild-type Q81), GSGS linker, alpha-synuclein 101-140 (not phosphorylated); pET15b, E. coli; with Alpha-synuclein
The experiment in a line: malachite green phosphate release, Michaelis-Menten fit. Type of assay: biochemical. The following applies: pH 7.5, 20 mM Hepes, 2 mM MgCl2, 1 mM DTT, 37 °C; a-Syn C-terminal tail covalently fused; no free a-Syn, no SUV. The text has this: malachite green phosphate release, Michaelis-Menten fit on Rab3a-a-Syn fusion construct

As a reminder, the Km is the concentration of substrate that gives half-maximal velocity. `Nc1nc2c(ncn2[C@@H]2O[C@H](COP(=O)(O)OP(=O)(O)OP(=O)(O)O)[C@@H](O)[C@H]2O)c(=O)[nH]1` [GTP]: the Km came out at 174 ± 46 µM.
